Assay results taken from patent US4554273A, “2-Amino-5-phenyl-1,3-benzodiazepines” (Lipha Lyonnaise Industrielle Pharmaceutique, priority 1983, dated 1985).
Counter-ions that a name gives are not always drawn.

Tests used:
[1] = system: Reserpine ptosis; experiment: inhibition of reserpine ptosis (oral); assay type: in vivo; conditions: Mus musculus, 1.5 h, Swiss mice, reserpine 5 mg/kg intraperitoneal, compounds orally at the same time, ptosis marked 1 h 30 min later
Description: The mood-modifying activity of the compounds is evaluated by standardized tests such as inhibition of known reserpine ptosis. Reserpine ptosis may be induced by methods such as those described in the literature. For example, Rubin, et al, [J. Pharmacol, Exp. Ther. 120: 125(1957)] induced ptosis in Swiss mice by intraperitoneal injection of 5 mg/kg of reserpine. This ptosis was marked 1 h 30 min later. Compounds to be tested for reserpine inhibition were administered orally at the same time as the reserpine was injected.

[2] = lethal dose (LD50) determined orally in Swiss mice; conditions: mouse, in vivo, oral

Work on CN(C)CCC=C1c2ccccc2CCc2ccccc21 [AMITRIPTYLINE, 5-(3-dimethylaminopropylidene)dibenzo[a,d]-1,4-cycloheptadiene hydrochloride, reference compound] yielded an ED50 [1] of 10 mg/kg.

In the case of NC1=Nc2ccccc2C(c2ccccc2)CN1 (centres unmarked) [Example 1, 2-Amino-5-phenyl-4,5-3H-dihydro-1,3-benzodiazepine hydrochloride], the ED50 [1] is reported as 18 mg/kg and the LD50 [2] is reported as 600 mg/kg.

In the case of Cc1ccc(C2CNC(N)=Nc3ccccc32)cc1 (centres unmarked) [Example 3, 2-Amino-5-(4-methylphenyl)-4,5-3H-hydro-1,3-benzodiazepine hydrochloride], the ED50 [1] is reported as 10 mg/kg and the LD50 [2] is reported as 330 mg/kg.

For NC1=Nc2ccccc2C(c2ccc(Cl)cc2)CN1 (centres unmarked) [Example 4, 2-Amino-5-(4-chlorophenyl)-4,5-3H-dihydro-1,3-benzodiazepine hydrochloride], the ED50 [1] was 11 mg/kg and the LD50 [2] was 1200 mg/kg.

With Cc1ccc(C2CNC(N)=Nc3ccc(C)cc32)cc1 (centres unmarked) [Example 8, 2-Amino-7-methyl-5-(4-methylphenyl)-4,5-3H-dihydro-1,3-benzodiazepine hydrochloride] the ED50 [1] was 3 mg/kg and the LD50 [2] was 2400 mg/kg.

For CCOC(=O)NC1=Nc2ccccc2C(c2ccccc2)CN1 (centres unmarked) [Example 48, 2-amino-(5-Phenyl-4,5-3H-dihydro-1,3-benzodiazepin)yl ethyl carbamate], the ED50 [1] was 13 mg/kg and the LD50 [2] was greater than 3200 mg/kg.
